Data published in ChEMBL document CHEMBL1201862, “PubChem BioAssay data set” (2004).
The source made the active and inactive calls. Unless noted, the rule behind the calls is not given here.

Key:
Type in all cases: functional
Protein RecA = biological target: T1, Protein RecA (Mycobacterium tuberculosis, UniProt P9WHJ3); assay: Fluorescence Cell-Free Homogeneous Dose Retest to Identify Inhibitors of RecA-Intein Splicing Activity. [Related pubchem assays (depositor defined):AID2097, AID2223, AID489010, AID492950]
T1 sequence (P9WHJ3 whole entry): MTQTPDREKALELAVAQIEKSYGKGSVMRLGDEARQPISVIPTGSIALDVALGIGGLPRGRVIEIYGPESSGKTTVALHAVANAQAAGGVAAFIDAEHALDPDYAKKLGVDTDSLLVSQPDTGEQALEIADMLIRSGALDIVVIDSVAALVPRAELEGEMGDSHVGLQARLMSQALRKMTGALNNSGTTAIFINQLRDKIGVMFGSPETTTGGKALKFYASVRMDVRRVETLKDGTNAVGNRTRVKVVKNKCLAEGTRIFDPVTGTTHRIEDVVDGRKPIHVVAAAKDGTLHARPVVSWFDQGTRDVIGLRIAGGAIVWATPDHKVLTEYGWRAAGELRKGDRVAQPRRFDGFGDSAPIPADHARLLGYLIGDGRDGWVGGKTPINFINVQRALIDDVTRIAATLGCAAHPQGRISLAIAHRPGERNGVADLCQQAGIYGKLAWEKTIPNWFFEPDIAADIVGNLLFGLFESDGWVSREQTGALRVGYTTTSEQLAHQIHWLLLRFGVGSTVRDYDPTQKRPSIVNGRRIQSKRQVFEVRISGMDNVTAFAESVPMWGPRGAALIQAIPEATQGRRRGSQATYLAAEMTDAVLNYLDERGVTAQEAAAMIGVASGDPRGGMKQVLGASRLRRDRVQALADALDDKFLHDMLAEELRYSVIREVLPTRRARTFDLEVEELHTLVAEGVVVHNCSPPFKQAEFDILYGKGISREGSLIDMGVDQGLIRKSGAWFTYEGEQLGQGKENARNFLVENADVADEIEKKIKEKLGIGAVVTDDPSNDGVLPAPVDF

[1] = nonselective inhibitors of cellular cAMP signaling, dose response, counter-screen for MC4R biased antagonist project, cell-based, TR-FRET cAMP detection (AID 602305);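 also: U2OS cells stimulated with forskolin near its EC80 as the cAMP inducer; potency is for inhibition of forskolin-stimulated cAMP signaling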
[2] = biological target: T2, Heat shock factor protein 1 (Mus musculus, UniProt P38532); assay: HSF1 potentiators in luciferase reporter cells, confirmation, cell-based, NIH3T3, luminescence, dose retest (AID 435004);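 also: stress induced by proteasome inhibitor MG132 added 30 min after compound; luciferase reporter driven by HSF1 response element in NIH3T3 cells; actives raise luminescence as potentiators of the MG132 stress response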
T2 sequence (P38532 whole entry): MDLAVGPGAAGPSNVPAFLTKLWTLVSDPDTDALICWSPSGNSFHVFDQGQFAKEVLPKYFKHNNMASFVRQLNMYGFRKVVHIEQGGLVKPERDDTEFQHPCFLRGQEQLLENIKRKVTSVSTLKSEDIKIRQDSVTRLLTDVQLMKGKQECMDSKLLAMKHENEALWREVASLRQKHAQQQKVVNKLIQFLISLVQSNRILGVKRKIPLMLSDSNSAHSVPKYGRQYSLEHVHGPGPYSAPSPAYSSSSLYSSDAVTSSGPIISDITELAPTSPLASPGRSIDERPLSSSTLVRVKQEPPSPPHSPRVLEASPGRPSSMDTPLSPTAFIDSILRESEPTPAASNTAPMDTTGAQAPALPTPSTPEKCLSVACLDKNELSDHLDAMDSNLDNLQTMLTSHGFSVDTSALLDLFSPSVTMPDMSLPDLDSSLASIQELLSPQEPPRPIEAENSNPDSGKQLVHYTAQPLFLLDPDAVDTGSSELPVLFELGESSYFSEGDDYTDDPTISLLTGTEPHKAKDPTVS

Fatty acid synthase [3] = biological target: T3, Fatty acid synthase (Homo sapiens, UniProt P49327); assay: FAS thioesterase domain inhibitors, dose response, biochemical, kinetic fluorescence intensity (AID 624326);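 also: rate of fluorescence rise from hydrolysis of a fluorogenic O-methyl fluorescein ester substrate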
T3 sequence (P49327 whole entry, the tested form may be a part): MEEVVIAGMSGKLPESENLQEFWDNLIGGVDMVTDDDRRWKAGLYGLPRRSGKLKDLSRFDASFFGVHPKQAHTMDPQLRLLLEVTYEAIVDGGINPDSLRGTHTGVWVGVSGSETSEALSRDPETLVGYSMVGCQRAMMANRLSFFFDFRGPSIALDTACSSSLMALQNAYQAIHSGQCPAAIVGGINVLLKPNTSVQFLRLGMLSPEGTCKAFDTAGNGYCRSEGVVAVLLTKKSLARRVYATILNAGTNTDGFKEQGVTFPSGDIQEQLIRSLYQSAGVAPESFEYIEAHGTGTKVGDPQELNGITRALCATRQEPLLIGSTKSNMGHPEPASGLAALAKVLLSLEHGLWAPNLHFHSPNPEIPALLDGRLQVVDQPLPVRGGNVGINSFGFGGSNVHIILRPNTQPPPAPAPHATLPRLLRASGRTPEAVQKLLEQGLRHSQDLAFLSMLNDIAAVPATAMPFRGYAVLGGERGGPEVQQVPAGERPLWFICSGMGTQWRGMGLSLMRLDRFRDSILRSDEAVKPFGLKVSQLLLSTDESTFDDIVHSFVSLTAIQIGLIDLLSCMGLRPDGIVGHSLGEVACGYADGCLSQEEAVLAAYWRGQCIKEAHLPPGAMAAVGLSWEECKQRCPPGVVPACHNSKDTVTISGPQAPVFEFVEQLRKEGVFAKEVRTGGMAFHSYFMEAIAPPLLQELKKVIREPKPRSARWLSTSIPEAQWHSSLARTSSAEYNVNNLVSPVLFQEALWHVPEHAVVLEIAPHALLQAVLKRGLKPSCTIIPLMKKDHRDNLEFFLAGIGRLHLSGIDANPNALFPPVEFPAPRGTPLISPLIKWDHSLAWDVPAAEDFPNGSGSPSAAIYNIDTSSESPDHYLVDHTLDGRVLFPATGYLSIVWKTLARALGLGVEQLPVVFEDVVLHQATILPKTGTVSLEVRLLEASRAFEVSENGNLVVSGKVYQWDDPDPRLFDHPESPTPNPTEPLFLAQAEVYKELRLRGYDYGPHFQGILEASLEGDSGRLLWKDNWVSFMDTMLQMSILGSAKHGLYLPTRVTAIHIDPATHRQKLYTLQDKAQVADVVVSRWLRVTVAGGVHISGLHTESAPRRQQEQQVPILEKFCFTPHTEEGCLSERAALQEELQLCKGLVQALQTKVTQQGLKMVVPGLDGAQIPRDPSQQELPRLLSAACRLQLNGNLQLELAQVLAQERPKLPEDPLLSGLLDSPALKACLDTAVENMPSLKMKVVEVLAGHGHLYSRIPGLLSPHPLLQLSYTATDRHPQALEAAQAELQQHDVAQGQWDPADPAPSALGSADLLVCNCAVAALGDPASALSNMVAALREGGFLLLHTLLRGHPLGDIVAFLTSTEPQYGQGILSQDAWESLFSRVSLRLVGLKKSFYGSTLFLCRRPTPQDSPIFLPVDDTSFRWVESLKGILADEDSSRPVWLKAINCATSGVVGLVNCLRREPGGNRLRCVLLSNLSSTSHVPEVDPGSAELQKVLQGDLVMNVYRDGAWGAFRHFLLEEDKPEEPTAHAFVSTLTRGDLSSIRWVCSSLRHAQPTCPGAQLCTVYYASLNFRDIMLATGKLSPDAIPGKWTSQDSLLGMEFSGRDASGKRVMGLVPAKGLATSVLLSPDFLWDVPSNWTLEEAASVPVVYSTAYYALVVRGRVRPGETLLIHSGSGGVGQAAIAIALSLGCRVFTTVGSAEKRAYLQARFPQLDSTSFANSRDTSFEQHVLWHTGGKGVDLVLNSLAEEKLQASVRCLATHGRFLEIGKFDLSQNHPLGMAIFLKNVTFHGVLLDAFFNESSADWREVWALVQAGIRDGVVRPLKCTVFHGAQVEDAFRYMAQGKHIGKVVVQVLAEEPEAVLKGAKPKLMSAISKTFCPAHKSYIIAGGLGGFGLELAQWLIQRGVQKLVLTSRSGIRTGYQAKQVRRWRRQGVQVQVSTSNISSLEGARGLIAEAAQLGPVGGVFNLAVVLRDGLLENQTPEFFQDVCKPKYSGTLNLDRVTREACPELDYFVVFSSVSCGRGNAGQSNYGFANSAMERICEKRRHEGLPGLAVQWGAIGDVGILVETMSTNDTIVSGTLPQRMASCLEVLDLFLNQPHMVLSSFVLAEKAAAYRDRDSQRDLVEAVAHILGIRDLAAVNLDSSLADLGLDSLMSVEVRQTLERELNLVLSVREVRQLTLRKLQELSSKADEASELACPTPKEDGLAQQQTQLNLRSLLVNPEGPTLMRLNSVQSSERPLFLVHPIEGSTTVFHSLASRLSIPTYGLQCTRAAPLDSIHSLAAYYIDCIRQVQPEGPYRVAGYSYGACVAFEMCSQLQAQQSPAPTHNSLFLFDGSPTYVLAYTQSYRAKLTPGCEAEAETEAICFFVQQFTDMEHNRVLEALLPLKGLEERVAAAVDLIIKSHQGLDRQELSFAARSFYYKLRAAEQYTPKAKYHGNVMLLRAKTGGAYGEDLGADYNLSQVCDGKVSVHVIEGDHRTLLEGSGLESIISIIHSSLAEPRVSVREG

[4] = cytotoxicity in HPDE-C7 cells, cell-based, fluorescence, HTS (AID 430); details: Homo sapiens
[5] = biological target: T4, Sphingosine 1-phosphate receptor 4 (Homo sapiens, UniProt O95977); assay: Late stage fluorescence dose response cell-based screening assay for antagonists of the Sphingosine 1-Phosphate Receptor 4 (S1P4). [Related pubchem assays: 1524 (Confirmation screen (S1P4 antagonists).), 1510 (Primary screen (S1P4 antagonists).), 1853 (Summary AID (S1P4 antagonists).), 1692 (Dose response screen (S1P4 antagonists).)]
T4 sequence (O95977 whole entry): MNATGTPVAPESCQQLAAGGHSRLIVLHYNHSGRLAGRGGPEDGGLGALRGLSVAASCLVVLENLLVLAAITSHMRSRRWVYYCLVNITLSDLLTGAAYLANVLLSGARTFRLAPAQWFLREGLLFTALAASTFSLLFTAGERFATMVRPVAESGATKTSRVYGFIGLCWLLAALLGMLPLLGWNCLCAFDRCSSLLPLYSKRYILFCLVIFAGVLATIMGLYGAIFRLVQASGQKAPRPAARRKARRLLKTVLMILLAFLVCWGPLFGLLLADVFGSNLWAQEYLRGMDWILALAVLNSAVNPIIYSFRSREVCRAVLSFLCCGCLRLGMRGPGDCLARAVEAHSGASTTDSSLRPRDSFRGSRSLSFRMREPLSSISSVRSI

[6] = inhibitors of PGC1a acetylation in cells, dose response, cell-based, cherry-picked samples (AID 720514);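 also: potency may reflect raised or lowered acetylation signal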
Fatty acid synthase [7] = biological target: T3, Fatty acid synthase; assay: FAS thioesterase domain inhibitors, dose response, biochemical, endpoint fluorescence intensity, uHTS hits (AID 624327);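 also: fluorescence from hydrolysis of an O-methyl fluorescein acyl ester substrate by the enzyme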
[8] = cytotoxicity in KRAS-transformed pancreatic duct cells, primary screen, cell-based, fluorescence, HTS (AID 431); details: Homo sapiens;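 also: cell line used: HPDE-C7K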
[9] = biological target: T5, Sphingosine 1-phosphate receptor 1 (Homo sapiens, UniProt P21453)
T5 sequence (P21453 whole entry): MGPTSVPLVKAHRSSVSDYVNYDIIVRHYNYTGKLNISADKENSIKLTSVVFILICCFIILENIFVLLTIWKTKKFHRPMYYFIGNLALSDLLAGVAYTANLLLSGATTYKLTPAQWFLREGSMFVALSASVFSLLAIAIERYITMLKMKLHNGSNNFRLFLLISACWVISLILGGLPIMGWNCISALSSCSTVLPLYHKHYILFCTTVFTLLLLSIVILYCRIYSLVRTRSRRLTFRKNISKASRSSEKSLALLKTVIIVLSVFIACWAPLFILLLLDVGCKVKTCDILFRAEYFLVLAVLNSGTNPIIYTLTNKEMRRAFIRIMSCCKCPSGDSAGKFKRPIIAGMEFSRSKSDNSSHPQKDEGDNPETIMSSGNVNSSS

[10] = biological target: T6, Replicative DNA helicase DnaB (Mycobacterium tuberculosis, UniProt P9WMR3); assay: DnaB intein splicing inhibitors, dose response, biochemical, cell-free fluorescence (AID 449749)
T6 sequence (P9WMR3 whole entry): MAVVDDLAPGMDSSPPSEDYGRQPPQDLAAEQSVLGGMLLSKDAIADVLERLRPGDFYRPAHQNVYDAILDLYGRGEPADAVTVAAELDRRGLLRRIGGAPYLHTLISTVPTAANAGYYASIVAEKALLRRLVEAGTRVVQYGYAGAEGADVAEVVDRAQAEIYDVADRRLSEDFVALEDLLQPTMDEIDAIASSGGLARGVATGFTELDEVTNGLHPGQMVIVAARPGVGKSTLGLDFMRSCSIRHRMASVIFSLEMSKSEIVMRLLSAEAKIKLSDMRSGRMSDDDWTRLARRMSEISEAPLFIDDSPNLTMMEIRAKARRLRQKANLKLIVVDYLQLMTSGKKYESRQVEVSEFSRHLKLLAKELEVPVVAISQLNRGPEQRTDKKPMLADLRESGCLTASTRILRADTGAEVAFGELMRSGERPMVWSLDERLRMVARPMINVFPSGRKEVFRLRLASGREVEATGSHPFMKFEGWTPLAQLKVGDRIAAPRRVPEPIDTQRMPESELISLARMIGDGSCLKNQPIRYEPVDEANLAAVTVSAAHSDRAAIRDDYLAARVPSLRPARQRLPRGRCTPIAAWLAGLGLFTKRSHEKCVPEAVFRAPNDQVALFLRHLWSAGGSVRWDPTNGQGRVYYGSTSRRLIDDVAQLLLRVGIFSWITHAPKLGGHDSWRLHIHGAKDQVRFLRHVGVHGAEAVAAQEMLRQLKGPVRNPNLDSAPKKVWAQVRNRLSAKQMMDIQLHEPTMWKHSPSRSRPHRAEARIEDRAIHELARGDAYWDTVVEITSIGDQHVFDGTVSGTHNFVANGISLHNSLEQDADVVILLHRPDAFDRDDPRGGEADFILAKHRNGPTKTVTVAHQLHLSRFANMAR

[11] = Luminescent dose response cell-based high throughput screening assay for inhibitors of the Janus kinase 2 mutant JAK2V617F. [Related pubchem assays: 1446 (Primary screen.), 1521 (Confirmation assay.), 1486 (Counter screen.)]
[12] = biological target: T4, Sphingosine 1-phosphate receptor 4; assay: Fluorescence dose response cell-based high throughput screening assay for antagonists of the Sphingosine 1-Phosphate Receptor 4 (S1P4). [Related pubchem assays: 1524 (Confirmation in triplicates.), 1510 (Primary screen.)]
Melanocortin receptor 4 = Melanocortin receptor 4 (Homo sapiens, UniProt P32245); assay: MC4R antagonist potency on cAMP, dose response, cell-based, TR-FRET, biased antagonists (AID 602298);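 also: antagonist potency against agonist-stimulated cAMP production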
Melanocortin receptor 4, sequence (P32245 whole entry): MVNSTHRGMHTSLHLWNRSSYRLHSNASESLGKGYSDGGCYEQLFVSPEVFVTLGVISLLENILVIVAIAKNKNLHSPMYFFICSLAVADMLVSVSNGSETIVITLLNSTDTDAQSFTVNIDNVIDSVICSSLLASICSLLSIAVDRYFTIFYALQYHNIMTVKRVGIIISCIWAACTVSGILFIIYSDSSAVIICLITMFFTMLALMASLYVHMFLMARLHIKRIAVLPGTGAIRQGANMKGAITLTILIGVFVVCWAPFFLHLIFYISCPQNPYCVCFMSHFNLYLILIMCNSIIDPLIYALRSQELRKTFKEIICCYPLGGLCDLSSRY

[13] = biological target: T4, Sphingosine 1-phosphate receptor 4; assay: (§1) Late-stage fluorescence-based dose-response cell-based counterscreen assay to identify agonists of the Sphingosine 1-Phosphate Receptor 4 (S1P4): inhibition by S1P4-selective antagonist […].
[14] = biological target: T7, Sphingosine 1-phosphate receptor 3 (Homo sapiens, UniProt Q99500); assay: Late-stage fluorescence-based dose-response cell-based counterscreen assay to identify agonists of the Sphingosine 1-Phosphate Receptor 4 (S1P4): Sphingosine 1-Phosphate Receptor 3 (S1P3) antagonist assay Set 2.
T7 sequence (Q99500 whole entry): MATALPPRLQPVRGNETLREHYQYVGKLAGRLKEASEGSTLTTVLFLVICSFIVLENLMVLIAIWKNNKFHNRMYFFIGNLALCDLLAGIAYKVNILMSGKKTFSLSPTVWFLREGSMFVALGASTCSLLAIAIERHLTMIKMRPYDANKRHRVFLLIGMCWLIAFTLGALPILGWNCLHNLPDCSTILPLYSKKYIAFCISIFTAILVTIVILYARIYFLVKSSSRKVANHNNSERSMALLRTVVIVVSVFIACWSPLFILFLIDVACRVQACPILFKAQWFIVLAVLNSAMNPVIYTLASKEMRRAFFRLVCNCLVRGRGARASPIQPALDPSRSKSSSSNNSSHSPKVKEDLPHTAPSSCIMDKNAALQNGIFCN

[15] = biological target: T4, Sphingosine 1-phosphate receptor 4; assay: Late-stage fluorescence-based dose-response cell-based counterscreen assay to identify agonists of the Sphingosine 1-Phosphate Receptor 4 (S1P4): inhibition by S1P4-selective antagonist 33 nM.
[16] = biological target: T4, Sphingosine 1-phosphate receptor 4; assay: Late-stage fluorescence-based dose-response cell-based counterscreen assay to identify agonists of the Sphingosine 1-Phosphate Receptor 4 (S1P4): inhibition by S1P4-selective antagonist control.
[17] = biological target: T5, Sphingosine 1-phosphate receptor 1; assay: Late-stage fluorescence-based dose-response cell-based counterscreen assay to identify agonists of the Sphingosine 1-Phosphate Receptor 4 (S1P4): Sphingosine 1-Phosphate Receptor 1 (S1P1) antagonist assay.
[18] = biological target: T4, Sphingosine 1-phosphate receptor 4; assay: Late-stage fluorescence-based dose-response cell-based counterscreen assay to identify agonists of the Sphingosine 1-Phosphate Receptor 4 (S1P4): inhibition by S1P4-selective antagonist 0.4 nM.
[19] = biological target: Sphingosine 1-phosphate receptor 5 (Homo sapiens, UniProt Q9H228); assay: Late-stage fluorescence-based dose-response cell-based counterscreen assay to identify agonists of the Sphingosine 1-Phosphate Receptor 4 (S1P4): Sphingosine 1-Phosphate Receptor 5 (S1P5) antagonist assay Set 2.
Sphingosine 1-phosphate receptor 5, sequence (Q9H228 whole entry): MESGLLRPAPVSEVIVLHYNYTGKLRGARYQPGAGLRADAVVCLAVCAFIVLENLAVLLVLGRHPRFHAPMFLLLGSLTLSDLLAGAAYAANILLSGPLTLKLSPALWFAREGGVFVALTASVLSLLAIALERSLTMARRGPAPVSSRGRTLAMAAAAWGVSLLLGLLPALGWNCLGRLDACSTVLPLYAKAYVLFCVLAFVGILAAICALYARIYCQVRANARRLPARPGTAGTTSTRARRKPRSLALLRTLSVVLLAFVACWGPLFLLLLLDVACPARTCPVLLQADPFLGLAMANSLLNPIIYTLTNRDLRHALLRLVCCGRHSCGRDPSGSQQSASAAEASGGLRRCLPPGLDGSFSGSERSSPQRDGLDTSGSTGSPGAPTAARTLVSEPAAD

[20] = biological target: T8, Sphingosine 1-phosphate receptor 2 (Homo sapiens, UniProt O95136); assay: S1P2 receptor agonists, human, late-stage follow-up, counter-screen for S1P4 agonist project, cell-based, fluorescence, set 2 (AID 504873)
T8 sequence (O95136 whole entry): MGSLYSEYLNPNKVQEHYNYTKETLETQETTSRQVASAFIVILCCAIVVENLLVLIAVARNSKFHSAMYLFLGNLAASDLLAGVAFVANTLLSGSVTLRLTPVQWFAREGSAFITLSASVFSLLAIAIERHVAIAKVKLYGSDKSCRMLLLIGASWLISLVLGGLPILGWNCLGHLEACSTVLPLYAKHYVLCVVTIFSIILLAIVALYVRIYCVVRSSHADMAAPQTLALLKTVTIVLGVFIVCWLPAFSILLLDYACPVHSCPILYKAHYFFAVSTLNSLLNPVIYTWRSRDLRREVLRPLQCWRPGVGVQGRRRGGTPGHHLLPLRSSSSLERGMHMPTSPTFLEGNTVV

[21] = biological target: T4, Sphingosine 1-phosphate receptor 4; assay: Late-stage fluorescence-based dose-response cell-based counterscreen assay to identify agonists of the Sphingosine 1-Phosphate Receptor 4 (S1P4): inhibition by S1P4-selective antagonist 11 nM.
[22] = cytotoxicity of S1P4 agonist candidates, late-stage follow-up, cytotoxicity control for S1P4 agonist project, cell-based, luminescence, dose response, set 2, assay provider (AID 504875)
[23] = biological target: T4, Sphingosine 1-phosphate receptor 4; assay: Late-stage fluorescence dose-response cell-based counterscreen assay to identify agonists of the Sphingosine 1-Phosphate Receptor 4 (S1P4): Sphingosine 1-Phosphate Receptor 4 (S1P4) antagonist assay Set 2.
[24] = biological target: T4, Sphingosine 1-phosphate receptor 4; assay: Late-stage fluorescence-based dose-response cell-based counterscreen assay to identify agonists of the Sphingosine 1-Phosphate Receptor 4 (S1P4): inhibition by S1P4-selective antagonist 100 nM.
[25] = biological target: T8, Sphingosine 1-phosphate receptor 2; assay: Late-stage fluorescence-based dose-response cell-based counterscreen assay to identify agonists of the Sphingosine 1-Phosphate Receptor 4 (S1P4): Sphingosine 1-Phosphate Receptor 2 (S1P2) antagonist assay Set 2.
[26] = biological target: T5, Sphingosine 1-phosphate receptor 1; assay: Late-stage fluorescence-based dose-response cell-based counterscreen assay to identify agonists of the Sphingosine 1-Phosphate Receptor 4 (S1P4): Sphingosine 1-Phosphate Receptor 1 (S1P1) agonist assay Set 2.
[27] = biological target: T7, Sphingosine 1-phosphate receptor 3; assay: Late-stage fluorescence-based dose-response cell-based counterscreen assay to identify agonists of the Sphingosine 1-Phosphate Receptor 4 (S1P4): Sphingosine 1-Phosphate Receptor 3 (S1P3) agonist assay Set 2.
[28] = biological target: T4, Sphingosine 1-phosphate receptor 4; assay: as §1; remark: listed apart in the source
[29] = biological target: Neuropeptides B/W receptor type 1 (Homo sapiens, UniProt P48145); assay: GPR7 antagonist potency, late-stage follow-up, cell-based, fluorescence, dose response, set 5 (AID 588566)
Neuropeptides B/W receptor type 1, sequence (P48145 whole entry): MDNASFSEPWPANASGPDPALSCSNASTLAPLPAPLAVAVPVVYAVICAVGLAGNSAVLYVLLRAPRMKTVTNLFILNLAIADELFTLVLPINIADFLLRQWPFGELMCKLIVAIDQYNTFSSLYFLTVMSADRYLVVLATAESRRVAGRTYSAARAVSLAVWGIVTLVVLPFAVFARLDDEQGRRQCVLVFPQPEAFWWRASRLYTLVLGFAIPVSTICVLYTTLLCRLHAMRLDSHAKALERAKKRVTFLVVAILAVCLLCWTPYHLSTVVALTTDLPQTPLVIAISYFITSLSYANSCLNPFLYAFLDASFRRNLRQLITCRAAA

[30] = biological target: Melanin-concentrating hormone receptor 1 (Homo sapiens, UniProt Q99705); assay: Late-stage fluorescence-based counterscreen for antagonists of the G-protein coupled receptor 7 (GPR7): cell-based dose response assay to identify antagonists of the melanin-concentrating hormone receptor 1 (MCHR1) Set 5.
Melanin-concentrating hormone receptor 1, sequence (Q99705 whole entry): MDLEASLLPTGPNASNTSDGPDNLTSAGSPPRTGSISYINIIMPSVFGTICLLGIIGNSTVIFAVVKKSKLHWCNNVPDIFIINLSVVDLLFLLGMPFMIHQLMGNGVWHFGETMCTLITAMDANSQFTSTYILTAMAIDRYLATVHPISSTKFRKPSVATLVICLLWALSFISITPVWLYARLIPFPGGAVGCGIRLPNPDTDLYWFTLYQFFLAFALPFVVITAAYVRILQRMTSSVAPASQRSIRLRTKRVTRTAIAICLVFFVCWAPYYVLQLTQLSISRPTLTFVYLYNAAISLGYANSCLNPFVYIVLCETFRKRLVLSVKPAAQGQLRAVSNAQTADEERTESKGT

[31] = THP-1 cell cytotoxicity, cytotoxicity control, set 4 (AID 504911); details: Mycobacterium tuberculosis
[32] = Vero cell cytotoxicity, dose response, cytotoxicity control for M. tuberculosis growth inhibitor project, Vero cells, purified and synthesized compounds, set 5 (AID 504909); details: Mycobacterium tuberculosis

Cc1ccccc1CS(=O)(=O)c1nnc([C@H](CC(C)C)NC(=O)OC(C)(C)C)o1
EC50 (Protein RecA): 11.6 µM (active)
IC50 [1]: > 64.6 µM (inactive)
EC50 [2]: > 260 µM (inactive)
IC50 (Fatty acid synthase [3]): 7.36 µM (active)
EC50 [4]: 8.56 µM (active)
IC50 [5]: 2.89 µM (not active)
AC50 [6]: 16 µM (active)
IC50 (Fatty acid synthase [7]): 12.3 µM (active)
EC50 [8]: 11.9 µM (active)
IC50 [9]: 38.9 µM (not active)
AC50 [10]: 93.7 µM (active)
IC50 [11]: 0.632 µM (active)
IC50 [12]: 1.2 µM (active)
IC50 (Melanocortin receptor 4): > 64.6 µM (inactive)

COCC/N=C1\S/C(=C\c2cc(C)n(-c3ccc(F)cc3F)c2C)C(=O)N1C
EC50 [13]: 0.173 µM (active)
IC50 [14]: ~8.9 µM (active)
EC50 [15]: > 3.3 µM (inactive)
EC50 [16]: 0.0154 µM (active)
IC50 [17]: > 25 µM (inactive)
EC50 [18]: 0.04 µM (active)
IC50 [19]: > 25 µM (inactive)
EC50 [20]: > 25 µM (inactive)
EC50 [21]: > 3.3 µM (inactive)
CC50 [22]: > 10 µM (inactive)
IC50 [23]: > 25 µM (inactive)
EC50 [24]: > 3.3 µM (inactive)
IC50 [25]: 6.76 µM (active)
EC50 [26]: > 25 µM (inactive)
EC50 [27]: > 25 µM (inactive)
EC50 [28]: > 3.3 µM (inactive)

COc1ccc(Oc2c(Cl)cnn(CC(=O)C(C)(C)C)c2=O)cc1
IC50 [29]: > 20 µM (inactive)
IC50 [30]: > 20 µM (inactive)

CO[C@H]1/C=C/O[C@@]2(C)Oc3c(C)c(O)c4c(O)c(c(C=NN5CCN(C)CC5)c(O)c4c3C2=O)NC(=O)/C(C)=C\C=C\[C@H](C)[C@H](O)[C@@H](C)[C@@H](O)[C@@H](C)[C@H](OC(C)=O)[C@@H]1C [RIFAMPIN]
CC50 [31]: 79.7 µM (active)
CC50 [32]: > 100 µM (active)
